Source: PubChem BioAssay (NCI)
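How tested: cells in 96-well plates exposed to compound for 48 hours at five concentrations. TGI: concentration producing complete growth inhibition.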

How the values were obtained:
Test in all cases: NCI-60 cell line screen, 48 h
MDA-N = test system: MDA-N
K-562 leukemia = test system: K-562 leukemia
SNB-19 CNS = test system: SNB-19 CNS
NCI-H23 lung = test system: NCI-H23 lung
CAKI-1 renal = test system: CAKI-1 renal
A549 NSCLC = test system: A549 NSCLC
HCT-116 colon = test system: HCT-116 colon
COLO 205 colon = test system: COLO 205 colon
UO-31 renal = test system: UO-31 renal
SF-295 CNS = test system: SF-295 CNS

Structure (SMILES)	TGI (MDA-N) [µM]	TGI (K-562 leukemia) [µM]	TGI (SNB-19 CNS) [µM]	TGI (NCI-H23 lung) [µM]	TGI (CAKI-1 renal) [µM]	TGI (A549 NSCLC) [µM]	TGI (HCT-116 colon) [µM]	TGI (COLO 205 colon) [µM]	TGI (UO-31 renal) [µM]	TGI (SF-295 CNS) [µM]
CCCCCCCCCCCCc1ccc(S(=O)(=O)O)cc1.[Zn+2]	> 100	> 100	> 100	> 100	> 100	> 100	> 100	> 100	> 100	> 100
COc1cc(C2SC(C)C(=O)N2c2ccc(-c3csc(NS(=O)(=O)c4ccc(Cl)c(OC)c4)n3)cc2)ccc1O (stereo not given)	> 100	> 100	> 100	53.6	> 100	> 100	> 100	> 100	> 100	> 100
Cc1ccc(C(=O)N(Cc2ccccc2)Cc2ccccc2)cc1N=NN(C)C	> 100	> 100	> 100	58.7	> 100	> 100	30	44.7	> 71	> 81.5
CCOC(=O)c1sc2nc(SC)nc3c2c1NCN3c1ccc(F)c(F)c1	> 45.8	> 100	> 83.2	75.3	> 100	25.3	54.6	> 100	> 63.3	65.9
Cc1c(-c2ccccc2)nn2cc(-c3ccccc3)nnc12	> 100	> 100	> 100	> 100	> 100	52.5	> 100	62	> 100	> 100
O=[N+]([O-])c1ccc(C(Nc2ccccc2)P(c2ccccc2)c2ccccc2)cc1 (stereo not given)	> 100	> 100	> 100	> 100	> 100	> 100	> 100	> 100	> 100	> 100
COc1ccc(/C=C/C(=O)c2cc(C(C)(C)C)c(O)c(C(C)(C)C)c2)cc1OC	> 33.3	> 89.6	64.1	> 68.9	> 90	> 100	48.6	31.9	57.9	> 71.1
CCCCCc1nnc(NS(=O)(=O)c2ccc(NC(=O)OCC(C)C)cc2)s1	> 100	60.9	> 100	> 100	> 100	> 100	53.7	41.6	> 100	> 100
C(=N\Nc1ccc(-c2nc3ccccc3[nH]2)cc1)/c1c(-c2ccc(Cc3ccccc3)cc2)[nH]c2ccccc12	> 24.5	> 100	> 77.3	59.5	> 59.8	> 100	> 68.4	19.8	49.2	27.9
CCN(CC)C(=S)Nc1ccc(-c2cc3ccc(O)cc3oc2=O)cc1	> 100	> 100	> 100	> 100	> 100	> 100	> 100	> 100	> 100	> 100
CSCCCS/C1=C/CCCCCCCCCC1	> 100	> 100	> 100	> 100	> 100	> 100	> 100	> 100	> 100	> 100
CC1=NN(C(=O)CC(=O)Nc2ccccc2Cl)C(=O)C1N=Nc1ccc(S(=O)(=O)c2ccc(N=NC3C(=O)N(C(=O)CC(=O)Nc4ccccc4Cl)N=C3C)cc2)cc1 (stereo not given)	> 100	> 100	> 100	> 100	> 100	> 100	> 100	> 100	> 100	> 100
CCOP(=O)(OCC)C(c1ccccc1)N(C(=O)NC(F)(F)F)c1cccc(F)c1 (stereo not given)	> 100	> 100	> 100	> 100	> 100	> 100	> 100	> 100	> 100	> 100
C/C(=C\c1ccccc1)C(=O)NCc1ccc(C(=O)NCCc2ccccc2)cc1	> 100	> 100	> 100	> 100	> 100	> 100	> 100	> 100	> 100	98.8
O=c1cc(NNc2cccc(F)c2)[nH]c(=O)[nH]1	> 100	84.4	> 100	> 100	29.9	> 100	31	> 100	95.8	> 100
CCCCCCNC(=O)CCC(NC(=O)c1ccc(N(C)Cc2cnc3nc(N)nc(N)c3n2)cc1)C(=O)NCCCCCC (stereo not given)	> 100	> 100	> 100	> 100	> 100	> 100	> 100	> 100	> 100	30.3

Structure (SMILES)	TGI (MDA-N) [µM]	TGI (K-562 leukemia) [µM]	TGI (SNB-19 CNS) [µM]	TGI (NCI-H23 lung) [µM]	TGI (CAKI-1 renal) [µM]	TGI (A549 NSCLC) [µM]	TGI (HCT-116 colon) [µM]	TGI (COLO 205 colon) [µM]	TGI (UO-31 renal) [µM]	TGI (SF-295 CNS) [µM]
C=CC(OC(C)=O)c1ccc(OC(=O)C(C)C)c(OC)c1 (stereo not given)	16.8	11.6	24.6	47.7	3.65	38.7	22.5	7.65	10.9	24.7
COC(=O)/C=C\C(C#N)(C#N)N=Cc1ccccc1	15.1	15	> 58.4	25.3	7.31	34.3	3.4	2.97	7.23	36.1
NNc1nncc2[nH]cnc12	> 100	> 100	> 100	> 100	> 100	> 100	> 100	> 100	> 100	> 100
CCOC(=O)c1c(-c2ccc(Cl)cc2)c(C#N)c(=S)n(C2OC(COC(C)=O)C(OC(C)=O)C(OC(C)=O)C2OC(C)=O)c1-c1ccccc1 (stereo not given)	> 100	> 100	> 100	> 100	> 100	> 100	> 100	> 100	> 100	> 100
Cc1ccc(-n2cc(-c3ccc(Cl)cc3)c3c(N/N=C4\SCC(=O)N4C)ncnc32)cc1	63.4	> 100	63.1	45.7	32.3	26.6	38.4	37.5	> 100	9.37
C=C1c2nc3ccccc3n2C=C(c2ccc(C)cc2)N1c1ccc(C)cc1	> 92.3	> 100	> 100	> 100	> 100	> 100	> 100	> 89.3	> 100	> 100
Cc1ccc2c(=O)c(C(=O)Nn3c(C)csc3=S)c[nH]c2n1	> 100	> 100	> 100	> 100	> 100	> 100	> 100	> 100	> 100	> 100
O=[N+]([O-])c1ccc(N/N=C/CC(O)(C(F)(F)F)C(F)(F)F)c([N+](=O)[O-])c1	> 10	> 10	> 10	> 10	> 10	> 10	> 10	> 10	> 10	> 10
COC(OC)C1OCC(n2cc(F)c(=O)[nH]c2=O)C1O (stereo not given)	> 100	> 100	> 100	> 100	> 100	> 100	> 100	> 100	> 100	> 100
CCOC(=O)c1cc(I)c(-c2cc(C)no2)n1C	> 100	> 100	> 100	> 100	54.7	> 100	> 100	> 100	> 100	> 100
CSc1cc(-c2ccccn2)nc(-c2ccccn2)c1	16	> 100	> 50.5	7.25	1.81	3.58	11.7	7.29	1.64	11.5
C=CCc1cc(-c2cc(CC=C)c(O)c(CN(CC)CC)c2)cc(CN(CC)CC)c1O	> 73.5	> 100	> 100	> 100	> 100	> 100	55.9	> 82.2	44.3	> 88
CSc1c(C#N)c(N)nc2c(N=Nc3ccc(Br)cc3)c(N)nn12	18.8	21.4	69.6	14.4	26	25.1	12.5	25.1	28.6	25.3
CC(=O)OC(Cc1ccc2ccccc2n1)(C(F)(F)F)C(F)(F)F	3.54	> 100	14.7	6.95	2.96	44.3	4.24	1.98	7.12	10.9
O=c1oc2ccc([N+](=O)[O-])cc2c(Nc2ccc3c(c2)Sc2ccccc2O3)c1[N+](=O)[O-]	88.8	88.3	36.2	39.1	50.6	73.9	30.5	34.8	37.8	94.3
